pIC50: −log10 of the molar value.
Columns and labels:
[1] = target: EGFR D770_N771insNPG (Homo sapiens, UniProt P00533, INS770NPG); test: TR-FRET inhibition of kinase activity of EGFR exon 20 insertion mutation; assay type: biochemical
Excerpt: Determination of the Inhibitory Effect of the Compound of the Present Invention on the Kinase Activity of EGFR Exon 20 Insertion Mutation
Experimental objective: The objective of this test example is to determine the inhibitory effect of the compound on the kinase activity of EGFR exon 20 insertion mutation.
Experimental process: The experiment applied the TR-FRET (time-resolved fluorescence resonance energy transfer) method to study the inhibitory effect of the compound on the kinase activity of EGFR exon 20 insertion mutation. The experiment was carried out in a 384-well plate. Experimental buffer (50 mM HEPES, 1 mM EGTA, 10 mM MgCl2, 2 mM DTT, 0.01% Tween-20) was formulated. The compound was diluted in gradient to different concentrations with the experimental buffer. 2.5 μL of the solution was added to each well of the 384-well plate. 2.5 μL of diluted EGFR kinase solution (0.001-0.5 nM) was added, and the plate was incubated at room temperature for 10 minutes. 5 μL of ULight-poly GT/ATP mixed solution was added, and the plate was incubated at room temperature for 30 to 60 minutes. 5 μL of EDTA stop solution and 5 μL of Eu-labeled antibody detection solution were added, and the plate was incubated at room temperature for 1 hour.
(§1) Experimental Data Processing Method:
The concentration and inhibition rate were fitted to a nonlinear regression curve by Graphpad Prism software to obtain the IC50 value.

[2] = tested on: A431 cell line; test: Proliferation of A431 cell line (CellTiter-Glo); assay type: cell-based; settings: Homo sapiens, A-431, 72 h
Protocol: Test Example 3. Determination of the Inhibitory Effect of the Compound of the Present Invention on the Proliferation of Ba/F3 EGFR Mutant Cell Line and A431 Cell Line
(§2) Experimental objective: The objective of this test example is to determine the inhibitory effect of the compound on the proliferation of Ba/F3 EGFR mutant cell line and A431 cell line
(§3) Experimental instruments: Microplate reader (BioTek Synergy H1), pipette (Eppendorf & Rainin).
(§4) A431 cells were cultured, and harvested after reaching a suitable density. The cells were adjusted to an appropriate cell concentration with the complete medium. The cell suspension were spread on a 96-well plate (90 μL per well), and the plate was placed in a 37° C., 5% CO2 incubator overnight to let the cells adhere to the wall. Solutions of the compound at different concentrations were formulated with DMSO and culture medium. Solvent control was set. The solution of the compound was added to the 96-well plate (10 L per well), and the plate was incubated in the 37° C., 5% CO2 incubator for 72 h. CellTiter-Glo solution was added and mixed well by shaking, and the plate was incubated in the dark for 10 minutes. The values were measured by BioTek Synergy H1 microplate reader.
as §1
(§5) The inhibition rate was calculated using the […] signal value. The concentration and inhibition rate were fitted to a nonlinear regression curve by Graphpad Prism software to obtain the IC50 value.

[3] = target: Ba/F3 EGFR-D770-N771ins_SVD (Homo sapiens, UniProt P00533, DUP768-770, cells depend on it); test: Proliferation of Ba/F3 EGFR mutant cell line (CellTiter-Glo); assay type: cell-based, mouse; settings: 72 h to 144 h, read-out: Ba/F3 EGFR-D770-N771ins_SVD IC50
Ba/F3 EGFR-D770-N771ins_SVD, sequence (P00533 with tags, fused parts or gaps DUP768-770): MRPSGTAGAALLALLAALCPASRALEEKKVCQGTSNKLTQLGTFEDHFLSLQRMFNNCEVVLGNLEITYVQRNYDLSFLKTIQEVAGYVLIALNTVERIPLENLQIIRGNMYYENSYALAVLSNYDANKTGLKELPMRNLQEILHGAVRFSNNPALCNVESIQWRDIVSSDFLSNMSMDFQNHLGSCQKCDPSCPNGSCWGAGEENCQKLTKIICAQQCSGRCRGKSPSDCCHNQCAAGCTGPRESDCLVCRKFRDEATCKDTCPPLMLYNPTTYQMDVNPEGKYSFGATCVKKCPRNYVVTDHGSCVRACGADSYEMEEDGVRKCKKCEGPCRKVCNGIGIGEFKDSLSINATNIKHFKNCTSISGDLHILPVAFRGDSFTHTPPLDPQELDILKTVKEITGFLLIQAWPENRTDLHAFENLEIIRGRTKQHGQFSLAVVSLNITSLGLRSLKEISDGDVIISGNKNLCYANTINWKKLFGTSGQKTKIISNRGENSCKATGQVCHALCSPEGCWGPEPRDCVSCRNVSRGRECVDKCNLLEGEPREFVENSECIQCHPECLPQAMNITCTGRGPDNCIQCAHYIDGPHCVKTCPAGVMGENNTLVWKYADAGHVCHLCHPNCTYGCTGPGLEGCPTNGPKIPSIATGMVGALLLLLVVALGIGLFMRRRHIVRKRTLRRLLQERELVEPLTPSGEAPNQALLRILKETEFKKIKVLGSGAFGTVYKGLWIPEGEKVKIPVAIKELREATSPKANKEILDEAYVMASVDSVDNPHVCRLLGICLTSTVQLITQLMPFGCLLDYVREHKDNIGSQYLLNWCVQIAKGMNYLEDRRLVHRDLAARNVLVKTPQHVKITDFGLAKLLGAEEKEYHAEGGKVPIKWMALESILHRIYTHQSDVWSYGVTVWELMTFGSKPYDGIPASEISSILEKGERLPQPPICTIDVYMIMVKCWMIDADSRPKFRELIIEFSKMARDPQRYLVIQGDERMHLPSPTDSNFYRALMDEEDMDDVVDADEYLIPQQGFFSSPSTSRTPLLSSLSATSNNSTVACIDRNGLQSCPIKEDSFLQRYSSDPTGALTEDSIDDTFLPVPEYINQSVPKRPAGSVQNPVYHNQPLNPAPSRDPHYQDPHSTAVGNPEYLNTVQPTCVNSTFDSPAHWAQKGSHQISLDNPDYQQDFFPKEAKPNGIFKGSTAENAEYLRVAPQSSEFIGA
Protocol: Determination of the Inhibitory Effect of the Compound of the Present Invention on the Proliferation of Ba/F3 EGFR Mutant Cell Line and A431 Cell Line
as §2, §3
as §4, with “Ba/F3 EGFR mutant” for “A431”, “The solution of the compound was added to the 96-well plate (10 L per well), and the plate was incubated in the 37° C., 5% CO2 incubator for 72 h.” left out
as §1, §5

EGFR D770_N771insNPG, sequence (P00533 with tags, fused parts or gaps INS770NPG limits assumed): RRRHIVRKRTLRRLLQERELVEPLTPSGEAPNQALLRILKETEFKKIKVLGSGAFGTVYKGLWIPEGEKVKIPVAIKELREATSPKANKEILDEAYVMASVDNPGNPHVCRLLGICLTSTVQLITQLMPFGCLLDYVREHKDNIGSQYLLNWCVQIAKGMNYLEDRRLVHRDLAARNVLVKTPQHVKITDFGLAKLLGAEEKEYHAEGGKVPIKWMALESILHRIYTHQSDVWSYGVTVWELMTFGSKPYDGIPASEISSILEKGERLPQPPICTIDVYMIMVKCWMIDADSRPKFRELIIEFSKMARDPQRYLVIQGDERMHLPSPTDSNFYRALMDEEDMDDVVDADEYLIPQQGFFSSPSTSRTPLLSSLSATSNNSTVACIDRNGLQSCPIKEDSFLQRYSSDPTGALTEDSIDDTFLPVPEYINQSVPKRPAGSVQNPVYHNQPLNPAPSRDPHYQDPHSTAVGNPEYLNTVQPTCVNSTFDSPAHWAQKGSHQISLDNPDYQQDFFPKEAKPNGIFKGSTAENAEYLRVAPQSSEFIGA

| SMILES | pIC50 [1] | pIC50 [2] | GI50 [3] [nM] |
| --- | --- | --- | --- |
| C=CC(=O)Nc1cc(Nc2ncc(C#N)c(-c3cn(C4CC4)c4ccccc34)n2)c(OC)cc1N1C[C@H]2CCN(C)[C@H]2C1 [Example 109, N-(5-((5-Cyano-4-(1-cyclopropyl-1H-indol-3-yl)pyrimidin-2-yl)amino)-4-methoxy-2-((3aR,6aR)-1-methylhexahydropyrrolo[3,4-b]pyrrol-5(1H)-yl)phenyl)acrylamide] | 9.11 | 6.77 | 49.1 |
| C=CC(=O)Nc1cc(Nc2ncc(-c3ncco3)c(-c3cn(C4CC4)c4ccccc34)n2)c(OC)cc1N1C[C@@H]2CCN(C)[C@@H]2C1 (relative stereo) [Example 40, Cis N-(5-((4-(1-Cyclopropyl-1H-indol-3-yl)-5-(oxazol-2-yl)pyrimidin-2-yl)amino)-4-methoxy-2-(1-methylhexahydropyrrolo[3,4-b]pyrrol-5(1H)-yl)phenyl)acrylamide] | 9.26 | 6.88 | 34.6 |
| C=CC(=O)Nc1cc(Nc2ncc(-c3ncco3)c(-c3cn(C4CC4)c4ccccc34)n2)c(OC)cc1N1CC[C@@H](N(C)C)C1 [Example 57, (R)—N-(5-((4-(1-Cyclopropyl-1H-indol-3-yl)-5-(oxazol-2-yl)pyrimidin-2-yl)amino)-2-(3-(dimethylamino)pyrrolidin-1-yl)-4-methoxyphenyl)acrylamide] | 9.09 | 6.95 | 28.1 |
| C=CC(=O)Nc1cc(Nc2ncc(C#N)c(-c3cn(C4CC4)c4ccc(OC)cc34)n2)c(OC)cc1N(C)CCN(C)C [Example 118, N-(5-((5-Cyano-4-(1-cyclopropyl-5-methoxy-1H-indol-3-yl)pyrimidin-2-yl)amino)-2-((2-(dimethylamino)ethyl)(methyl)amino)-4-methoxyphenyl)acrylamide] | 9.26 | 6.70 | 45.1 |
| C=CC(=O)Nc1cc(Nc2ncc(-c3ncco3)c(-c3cn(C4CC4)c4ccccc34)n2)c(OC)cc1N1CC(N2CCCC2)C1 [Example 53, N-(5-((4-(1-Cyclopropyl-1H-indol-3-yl)-5-(oxazol-2-yl)pyrimidin-2-yl)amino)-4-methoxy-2-(3-(pyrrolidin-1-yl)azetidin-1-yl)phenyl)acrylamide] | 9.30 | 6.74 | 21.7 |
| C=CC(=O)Nc1cc(Nc2ncc(-c3ncco3)c(-c3cn(C4CC4)c4ccccc34)n2)c(OC)cc1N1CC(N(C)C)C1 [Example 52, N-(5-((4-(1-Cyclopropyl-1H-indol-3-yl)-5-(oxazol-2-yl)pyrimidin-2-yl)amino)-2-(3-(dimethylamino)azetidin-1-yl)-4-methoxyphenyl)acrylamide] | 9.10 | 6.51 | 34.9 |
| C=CC(=O)Nc1cc(Nc2ncc(-c3ncco3)c(-c3cn(C4CC4)c4ccccc34)n2)c(OC)cc1N1C[C@H]2CN(C)C[C@H]2C1 [Example 36, N-(5-((4-(1-Cyclopropyl-1H-indol-3-yl)-5-(oxazol-2-yl)pyrimidin-2-yl)amino)-4-methoxy-2-((3aR,6aS)-5-methylhexahydropyrrolo[3,4-c]pyrrol-2(1H)-yl)phenyl)acrylamide] | – | 6.36 | 27.1 |
| CC#CC(=O)Nc1cc(Nc2ncc(C(=O)OC(C)C)c(-c3cn(C)c4ccccc34)n2)c(OC)cc1N(C)CC1CCCN1C (centres unmarked) [Example 1, Isopropyl 2-((5-(but-2-ynamido)-2-methoxy-4-(methyl((1-methylpyrrolidin-2-yl)methyl)amino)phenyl)amino)-4-(1-methyl-1H-indol-3-yl)pyrimidine-5-carboxylate] | – | 6.27 | 76 |
| C=CC(=O)Nc1cc(Nc2ncc(-c3ncco3)c(-c3cn(C4CC4)c4ccccc34)n2)c(OC)cc1N1CC[C@H](N(C)C)C1 [Example 56, (S)—N-(5-((4-(1-Cyclopropyl-1H-indol-3-yl)-5-(oxazol-2-yl)pyrimidin-2-yl)amino)-2-(3-(dimethylamino)pyrrolidin-1-yl)-4-methoxyphenyl)acrylamide] | – | 6.84 | 45.3 |
| C=CC(=O)Nc1cc(Nc2ncc(C#N)c(-c3cn(C4CC4)c4ccccc34)n2)c(OC)cc1N1C[C@H]2CN(C)C[C@H]2C1 [Example 35, N-(5-((5-Cyano-4-(1-cyclopropyl-1H-indol-3-yl)pyrimidin-2-yl)amino)-4-methoxy-2-((3aR,6aS)-5-methylhexahydropyrrolo[3,4-c]pyrrol-2(1H)-yl)phenyl)acrylamide] | 9.37 | 6.79 | 24.8 |
| C=CC(=O)Nc1cc(Nc2ncc(-c3ncco3)c(-c3cn(C4CC4)c4ccccc34)n2)c(OC)cc1N(C)CC1CCCN1C (centres unmarked) [Example 38, N-(5-((4-(1-Cyclopropyl-1H-indol-3-yl)-5-(oxazol-2-yl)pyrimidin-2-yl)amino)-4-methoxy-2-(methyl((1-methylpyrrolidin-2-yl)methyl)amino)phenyl)acrylamide] | 9.35 | 6.84 | 34.6 |

The next molecules have a higher pIC50 [2] than those just listed; values first:

| pIC50 [1] | pIC50 [2] | GI50 [3] [nM] | SMILES |
| --- | --- | --- | --- |
| – | 7.29 | 33.1 | C=CC(=O)Nc1cc(Nc2ncc(-c3ccccc3)c(-c3cn(C4CC4)c4ccccc34)n2)c(OC)cc1N1C[C@H]2CN(C)C[C@H]2C1 [Example 47, N-(5-((4-(1-Cyclopropyl-1H-indol-3-yl)-5-phenylpyrimidin-2-yl)amino)-4-methoxy-2-((3aR,6aS)-5-methylhexahydropyrrolo[3,4-c]pyrrol-2(1H)-yl)phenyl)acrylamide] |
| 9.80 | 7.74 | 9.78 | C=CC(=O)Nc1cc(Nc2ncc(C#N)c(-c3cn(C4COC4)c4cc(OC)ccc34)n2)c(OC)cc1N(C)CCN(C)C [Example 137, N-(5-((5-Cyano-4-(6-methoxy-1-(oxetan-3-yl)-1H-indol-3-yl)pyrimidin-2-yl)amino)-2-((2-(dimethylamino)ethyl)(methyl)amino)-4-methoxyphenyl)acrylamide] |
| 9.41 | 7.54 | 17.4 | C=CC(=O)Nc1cc(Nc2ncc(-c3cccnc3)c(-c3cn(C4CC4)c4ccccc34)n2)c(OC)cc1N1C[C@H]2CN(C)C[C@H]2C1 [Example 64, N-(5-((4-(1-Cyclopropyl-1H-indol-3-yl)-5-(pyridin-3-yl)pyrimidin-2-yl)amino)-4-methoxy-2-((3aR,6aS)-5-methylhexahydropyrrolo[3,4-c]pyrrol-2(1H)-yl)phenyl)acrylamide] |
| 9.74 | 7.33 | 13.4 | C=CC(=O)Nc1cc(Nc2ncc(C#N)c(-c3cn(C4CC4)c4cc(OC)c(F)cc34)n2)c(OC)cc1N(C)CCN(C)C [Example 127, N-(5-((5-Cyano-4-(1-cyclopropyl-5-fluoro-6-methoxy-1H-indol-3-yl)pyrimidin-2-yl)amino)-2-((2-(dimethylamino)ethyl)(methyl)amino)-4-methoxyphenyl)acrylamide] |
| 9.74 | 7.47 | 21.2 | C=CC(=O)Nc1cc(Nc2ncc(C#N)c(-c3cn(C4COC4)c4ccccc34)n2)c(OC)cc1N(C)CCN(C)C [Example 111, N-(5-((5-cyano-4-(1-(oxetan-3-yl)-1H-indol-3-yl)pyrimidin-2-yl)amino)-2-((2-(dimethylamino)ethyl)(methyl)amino)-4-methoxyphenyl)acrylamide] |
